Assay results as given in the NIST ThermoML archive (doi:10.1021/je049776w).

Test: xn = mol fraction of the nth substance listed
Settings: 101.3 kPa, Liquid

Cc1ccc(C)cc1 [1,4-dimethylbenzene] + CN1CCCC1=O
Settings	mass density [kg/m3]	viscosity [mPa·s]
303.15 K, x1 = 0.0947	1005.71	1.359
303.15 K, x1 = 0.1893	988.37	1.239
303.15 K, x1 = 0.2858	971.07	1.129
303.15 K, x1 = 0.3838	953.82	1.02
303.15 K, x1 = 0.483	936.56	0.9203
303.15 K, x1 = 0.5836	919.47	0.8327
303.15 K, x1 = 0.6854	902.73	0.7753
303.15 K, x1 = 0.7888	885.85	0.7001
303.15 K, x1 = 0.8937	869.04	0.6291
303.15 K, x1 = 1	852.35	0.5715
313.15 K, x1 = 0.0947	996.79	1.173
313.15 K, x1 = 0.1893	979.45	1.07
313.15 K, x1 = 0.2858	962.14	0.9754
313.15 K, x1 = 0.3838	944.9	0.8894
313.15 K, x1 = 0.483	927.68	0.807
313.15 K, x1 = 0.5836	910.56	0.7296
313.15 K, x1 = 0.6854	893.86	0.6862
313.15 K, x1 = 0.7888	877.02	0.619
313.15 K, x1 = 0.8937	860.27	0.5579
313.15 K, x1 = 1	843.64	0.508
323.15 K, x1 = 0.0947	987.88	1.023
323.15 K, x1 = 0.1893	970.53	0.9373
323.15 K, x1 = 0.2858	953.21	0.8571
323.15 K, x1 = 0.3838	935.97	0.7795
323.15 K, x1 = 0.483	918.77	0.7084
323.15 K, x1 = 0.5836	901.68	0.6521
323.15 K, x1 = 0.6854	884.99	0.6084
323.15 K, x1 = 0.7888	868.16	0.5517
323.15 K, x1 = 0.8937	851.46	0.4998
323.15 K, x1 = 1	834.9	0.4599
333.15 K, x1 = 0.0947	978.93	0.9019
333.15 K, x1 = 0.1893	961.55	0.8316
333.15 K, x1 = 0.2858	944.23	0.7602
333.15 K, x1 = 0.3838	926.99	0.694
333.15 K, x1 = 0.483	909.8	0.6321
333.15 K, x1 = 0.5836	892.71	0.5828
333.15 K, x1 = 0.6854	876.03	0.5437
333.15 K, x1 = 0.7888	859.21	0.4947
333.15 K, x1 = 0.8937	842.56	0.4504
333.15 K, x1 = 1	826.09	0.4298
343.15 K, x1 = 0.0947	969.95	0.8009
343.15 K, x1 = 0.1893	952.56	0.7371
343.15 K, x1 = 0.2858	935.23	0.681
343.15 K, x1 = 0.3838	917.98	0.6209
343.15 K, x1 = 0.483	900.82	0.5686
343.15 K, x1 = 0.5836	883.72	0.5173
343.15 K, x1 = 0.6854	867.04	0.4921
343.15 K, x1 = 0.7888	850.22	0.4476
343.15 K, x1 = 0.8937	833.61	0.4081
343.15 K, x1 = 1	817.17	0.3783
353.15 K, x1 = 0.0947	960.94	0.7219
353.15 K, x1 = 0.1893	943.54	0.6637
353.15 K, x1 = 0.2858	926.19	0.6119
353.15 K, x1 = 0.3838	908.93	0.561
353.15 K, x1 = 0.483	891.78	0.5127
353.15 K, x1 = 0.5836	874.66	0.4761
353.15 K, x1 = 0.6854	857.97	0.4466
353.15 K, x1 = 0.7888	841.16	0.4072
353.15 K, x1 = 0.8937	824.56	0.3726
353.15 K, x1 = 1	808.22	0.3382

Cc1ccc(C)cc1 [1,4-dimethylbenzene] + CCCCCCC
Settings	mass density [kg/m3]	viscosity [mPa·s]
298.15 K, x1 = 0.0948	694.32	0.4074
298.15 K, x1 = 0.1911	709.39	0.4176
298.15 K, x1 = 0.288	725.04	0.4295
298.15 K, x1 = 0.3865	741.5	0.4436
298.15 K, x1 = 0.4856	758.54	0.4598
298.15 K, x1 = 0.5861	776.51	0.4807
298.15 K, x1 = 0.6877	795.16	0.5047
298.15 K, x1 = 0.7906	814.74	0.5331
298.15 K, x1 = 0.8949	835.24	0.5714
298.15 K, x1 = 1	856.7	0.6162
303.15 K, x1 = 0.0948	690.05	0.382
303.15 K, x1 = 0.1911	705.12	0.3912
303.15 K, x1 = 0.288	720.75	0.4019
303.15 K, x1 = 0.3865	737.2	0.4154
303.15 K, x1 = 0.4856	754.24	0.4304
303.15 K, x1 = 0.5861	772.19	0.4496
303.15 K, x1 = 0.6877	790.83	0.4716
303.15 K, x1 = 0.7906	810.42	0.4979
303.15 K, x1 = 0.8949	830.91	0.5308
303.15 K, x1 = 1	852.35	0.5715
313.15 K, x1 = 0.0948	681.45	0.344
313.15 K, x1 = 0.1911	696.52	0.3523
313.15 K, x1 = 0.288	712.12	0.3623
313.15 K, x1 = 0.3865	728.57	0.374
313.15 K, x1 = 0.4856	745.57	0.3865
313.15 K, x1 = 0.5861	763.52	0.4034
313.15 K, x1 = 0.6877	782.15	0.4234
313.15 K, x1 = 0.7906	801.71	0.444
313.15 K, x1 = 0.8949	822.21	0.4729
313.15 K, x1 = 1	843.64	0.508
323.15 K, x1 = 0.0948	672.73	0.3136
323.15 K, x1 = 0.1911	687.79	0.3211
323.15 K, x1 = 0.288	703.38	0.3304
323.15 K, x1 = 0.3865	719.83	0.3408
323.15 K, x1 = 0.4856	736.82	0.3529
323.15 K, x1 = 0.5861	754.77	0.3683
323.15 K, x1 = 0.6877	773.41	0.3835
323.15 K, x1 = 0.7906	792.97	0.4041
323.15 K, x1 = 0.8949	813.45	0.4285
323.15 K, x1 = 1	834.9	0.4599
333.15 K, x1 = 0.0948	663.88	0.2848
333.15 K, x1 = 0.1911	678.95	0.2922
333.15 K, x1 = 0.288	694.52	0.2997
333.15 K, x1 = 0.3865	710.98	0.3097
333.15 K, x1 = 0.4856	727.97	0.3201
333.15 K, x1 = 0.5861	745.92	0.3345
333.15 K, x1 = 0.6877	764.57	0.3537
333.15 K, x1 = 0.7906	784.15	0.3712
333.15 K, x1 = 0.8949	804.64	0.3973
333.15 K, x1 = 1	826.09	0.4298
343.15 K, x1 = 0.0948	654.83	0.2612
343.15 K, x1 = 0.1911	669.89	0.2658
343.15 K, x1 = 0.288	685.48	0.273
343.15 K, x1 = 0.3865	701.94	0.2818
343.15 K, x1 = 0.4856	718.94	0.2915
343.15 K, x1 = 0.5861	736.91	0.303
343.15 K, x1 = 0.6877	755.57	0.3166
343.15 K, x1 = 0.7906	775.17	0.3317
343.15 K, x1 = 0.8949	795.69	0.3498
343.15 K, x1 = 1	817.17	0.3783
